Measured values from ChEMBL document CHEMBL3885881, “DrugMatrix”.
Several values for one entry are separate records, joined by “and”; a condition that tells them apart may be missing. Equal entries are not always repeated.

Organism: Rattus norvegicus
Format: toxicity, organism-based, Sprague-Dawley
Details: in vivo, sc, 24 h, route mini-PUMP - SUBCUTANEOUS, vehicle 100 % SALINE; for ALANINE AMINOTRANSFERASE / ALBUMIN / ALKALINE PHOSPHATASE / ASPARTATE AMINOTRANSFERASE / BLOOD UREA NITROGEN / CARBON DIOXIDE / CHLORIDE / CHOLESTEROL / CREATINE PHOSPHOKINASE / CREATININE / GLUCOSE / LACTATE DEHYDROGENASE / PHOSPHORUS / POTASSIUM / SODIUM / TOTAL BILIRUBIN / TOTAL PROTEIN / URIC ACID / LIPASE: tissue Plasma
[1] = 0 mg/kg, vehicle control, tissue Blood, dose level Control, time 1 day
[2] = 0 mg/kg, vehicle control, dose level Control, time 1 day
[3] = 2 mg/kg, tissue Blood, dose level High, time 1 day
[4] = 2 mg/kg, dose level High, time 1 day
[5] = […], tissue Blood, dose 4.2 mg/Kg, dose level M1, time 1 day
[6] = […], dose 4.2 mg/Kg, dose level M1, time 1 day

Description: DrugMatrix - Regimen: Single

## CC(C)NCC(O)c1ccc(O)c(O)c1 (stereo not drawn) [ISOPROTERENOL]
[1]
  ABSOLUTE SEGMENTED NEUTROPHIL: 1753.5 CELLS/uL
  BASOPHIL: 0.4% and 0%
  EOSINOPHIL: 0.3% and 0.17%
  ERYTHROCYTE COUNT: 6.25 x10E6/uL and 5.64 x10E6/uL
  HEMATOCRIT: 41.8% and 34.52%
  HEMOGLOBIN: 13.33 G/DL and 12.68 G/DL
  LEUKOCYTE COUNT: 11.55 x10E3/uL and 13 x10E3/uL
  LYMPHOCYTE: 72.6% and 84.5%
  MEAN CORPUSCULAR HEMOGLOBIN: 21.37 pg and 22.5 pg
  MONOCYTE: 2.4% and 1.83%
  NEUTROPHIL: 23.4% and 13.5%
  NUCLEATED RED BLOOD CELLS: 0.17 /100WBC
  PLATELET COUNT: 1265.33 x10E3/uL and 679.17 x10E3/uL
[2]
  ALANINE AMINOTRANSFERASE: 40.33 u/L and 42.67 u/L
  ALBUMIN: 3.63 G/DL and 3.77 G/DL
  ALKALINE PHOSPHATASE: 385.33 u/L and 291.17 u/L
  ASPARTATE AMINOTRANSFERASE: 79.33 u/L and 74.5 u/L
  BLOOD UREA NITROGEN: 13.33 mg/dL and 15.33 mg/dL
  CARBON DIOXIDE: 40.67 mmol/L and 30 mmol/L
  CHLORIDE: 103 MEQ/L and 100.83 MEQ/L
  CHOLESTEROL: 86.33 mg/dL and 65.33 mg/dL
  CREATINE PHOSPHOKINASE: 190.33 u/L
  CREATININE: 0.4 mg/dL and 0.15 mg/dL
  GLUCOSE: 165.67 mg/dL and 179.83 mg/dL
  LACTATE DEHYDROGENASE: 103.33 u/L and 162.67 u/L
  PHOSPHORUS: 11.7 mg/dL and 12.2 mg/dL
  POTASSIUM: 5.5 MEQ/L and 5.73 MEQ/L
  SODIUM: 145 MEQ/L and 144.7 MEQ/L
  TOTAL BILIRUBIN: 0.27 mg/dL and 0.15 mg/dL
  TOTAL PROTEIN: 5.87 G/DL
  URIC ACID: 1 mg/dL and 1.93 mg/dL
[3]
  ABSOLUTE BASOPHIL: 13.3 cells/µL
  ABSOLUTE EOSINOPHIL: 56.7 cells/µL
  ABSOLUTE LYMPHOCYTE: 4960 cells/µL
  ABSOLUTE MONOCYTE: 150 cells/µL
  BASOPHIL: 0.2%
  EOSINOPHIL: 0.83%
  ERYTHROCYTE COUNT: 5.65 x10E6/uL
  HEMATOCRIT: 36.77%
  HEMOGLOBIN: 11.77 G/DL
  LEUKOCYTE COUNT: 6.69 x10E3/uL
  LYMPHOCYTE: 74.03%
  MEAN CORPUSCULAR HEMOGLOBIN: 20.8 pg
  MEAN CORPUSCULAR HEMOGLOBIN CONCENTRATION: 31.97 G/DL
  MEAN CORPUSCULAR VOLUME: 65.1 fL
  MONOCYTE: 2.3%
  NEUTROPHIL: 22.1%
  PLATELET COUNT: 1167.67 x10E3/uL
[4]
  ALANINE AMINOTRANSFERASE: 33 u/L
  ALBUMIN: 3.6 G/DL
  ALKALINE PHOSPHATASE: 400 u/L
  ASPARTATE AMINOTRANSFERASE: 86.67 u/L
  BLOOD UREA NITROGEN: 14.67 mg/dL
  CARBON DIOXIDE: 33 mmol/L
  CHLORIDE: 106.67 MEQ/L
  CHOLESTEROL: 105 mg/dL
  CREATINE PHOSPHOKINASE: 281.33 u/L
  CREATININE: 0.6 mg/dL
  GLUCOSE: 99.33 mg/dL
  LACTATE DEHYDROGENASE: 93 u/L
  LIPASE: 24.67 u/L
  PHOSPHORUS: 11.33 mg/dL
  POTASSIUM: 5.6 MEQ/L
  SODIUM: 146 MEQ/L
  TOTAL BILIRUBIN: 0.2 mg/dL
  TOTAL PROTEIN: 5.87 G/DL
  URIC ACID: 0.93 mg/dL
[5]
  ABSOLUTE EOSINOPHIL: 59.67 CELLS/uL
  ABSOLUTE LYMPHOCYTE: 9880 CELLS/uL
  ABSOLUTE MONOCYTE: 232.33 CELLS/uL
  ABSOLUTE SEGMENTED NEUTROPHIL: 3561.33 CELLS/uL
  BASOPHIL: 0%
  EOSINOPHIL: 0.33%
  ERYTHROCYTE COUNT: 5.17 x10E6/uL
  HEMATOCRIT: 30.7%
  HEMOGLOBIN: 11.47 G/DL
  LEUKOCYTE COUNT: 13.73 x10E3/uL
  LYMPHOCYTE: 71.67%
  MEAN CORPUSCULAR HEMOGLOBIN: 22.2 pg
  MEAN CORPUSCULAR HEMOGLOBIN CONCENTRATION: 37.33 G/DL
  MEAN CORPUSCULAR VOLUME: 59.43 fL
  MONOCYTE: 1.67%
  NEUTROPHIL: 26.33%
  NUCLEATED RED BLOOD CELLS: 0 /100WBC
  PLATELET COUNT: 1159 x10E3/uL
[6]
  ALANINE AMINOTRANSFERASE: 55.33 u/L
  ALBUMIN: 3.73 G/DL
  ALKALINE PHOSPHATASE: 326.67 u/L
  ASPARTATE AMINOTRANSFERASE: 83 u/L
  BLOOD UREA NITROGEN: 14 mg/dL
  CARBON DIOXIDE: 28.67 mmol/L
  CHLORIDE: 100.67 MEQ/L
  CHOLESTEROL: 89.67 mg/dL
  CREATININE: 0.13 mg/dL
  GLUCOSE: 154 mg/dL
  LACTATE DEHYDROGENASE: 126.67 u/L
  LIPASE: 8.67 u/L
  PHOSPHORUS: 14.57 mg/dL
  POTASSIUM: 6.55 MEQ/L
  SODIUM: 144.37 MEQ/L
  TOTAL BILIRUBIN: 0.1 mg/dL
  TOTAL PROTEIN: 6.03 G/DL
  URIC ACID: 2.43 mg/dL
